Here are results for 8 compounds from patent US20180064726A1, “Deuterium-Substituted Oxazepin Compounds” (Auspex Pharmaceuticals, Inc., priority 2016, published 2018).

For orientation: half-life means how long it takes for the measured level to halve. High values mean slow loss, low ones fast loss.

Series [1] is described as follows: In vitro human liver microsomal stability assay. The class given is in vitro ADME. The settings on record: human liver microsomes 0.5 mg per mL protein, NADPH-generating system, 1 μM test compound, 37±1° C., 0-60 min; for half-life at 1 μM: degradation half-life; for CLint scaled at 1 μM: read-out: Clearance %. On the procedure: In Vitro Liver Microsomal Stability Assay
Human liver microsomal stability assays were conducted at 0.5 mg per mL liver microsome protein with an NADPH-generating system consisting of NADP (1 mM, pH 7.4), […] (5 mM, pH 7.4), and glucose-6-phosphate dehydrogenase (1 unit/mL).
Test compounds were prepared as solutions in DMSO and added to the assay mixture (1 μM, final concentration in incubation) to be incubated at 37±1° C. Reactions were initiated with the addition of cofactor and were stopped at 0, 15, 30, 45, and 60 min after cofactor addition with stop reagent (0.2 mL acetonitrile). Samples were centrifuged (920×g for 10 min at 10° C.) in 96-well plates. Supernatant fractions were analyzed by LC-MS/MS to determine the percent remaining and estimate the degradation half-life of the test compounds.
(Microsomes from liver hold many membrane-bound enzymes, among them those of drug oxidation.)

Series [2] has as its system patients with QT-3 (LQT3) syndrome. The settings on record: cited from earlier work.

As for `[2H]C([2H])(c1ncccn1)N1CCOc2ccc(-c3ccc(OC(F)(F)F)cc3)cc2C1=O` [Example 2, 4-(pyrimidin-2-ylmethyl-d2)-7-(4-(trifluoromethoxy)phenyl)-3,4-dihydrobenzo[f][1,4]oxazepin-5(2H)-one], in series [1], the half-life at 1 μM is 9.52 h and the CLint scaled at 1 μM amounted to 3.04 mL/min/kg. On to `O=C1c2cc(-c3ccc(OC(F)(F)F)cc3)ccc2OCCN1Cc1ncccn1` [Example 1, 4-(pyrimidin-2-ylmethyl)-7-[4-(trifluoromethoxy)phenyl]-2,3,4,5-tetrahydro-1,4-benzoxazepin-5-one, reference compound], for which, in series [1], the half-life at 1 μM amounted to 2.36 h and the CLint scaled at 1 μM was 12.3 mL/min/kg. The like results for `[2H]C1([2H])CN(Cc2ncccn2)C(=O)c2cc(-c3ccc(OC(F)(F)F)cc3)ccc2O1` [Example 3, 4-(pyrimidin-2-ylmethyl)-7-[4-(trifluoromethoxy)phenyl]-2,3,4,5-tetrahydro(2,2-d2)-1,4-benzoxazepin-5-one] were, in that order, 4.62 h and 6.27 mL/min/kg. On to `[2H]c1c(-c2ccc(OC(F)(F)F)cc2)cc2c(c1[2H])OCCN(Cc1ncccn1)C2=O` [Example 7, 4-(pyrimidin-2-ylmethyl)-7-[4-(trifluoromethoxy)phenyl]-2,3,4,5-tetrahydro(8,9-d2)-1,4-benzoxazepin-5-one], for which, in series [1], the half-life at 1 μM worked out at 2.32 h and the CLint scaled at 1 μM was 12.5 mL/min/kg. The like results for `[2H]C1([2H])COc2ccc(-c3ccc(OC(F)(F)F)cc3)cc2C(=O)N1Cc1ncccn1` [Example 4, 4-(pyrimidin-2-ylmethyl)-7-(4-(trifluoromethoxy)phenyl)-3,4-dihydrobenzo[f][1,4]oxazepin-5(2H)-one-3,3-d2] were, in that order, 2.01 h and 14.4 mL/min/kg. With “4-(pyrimidin-2-ylmethyl)-7-[4-(trifluoromethoxy)phenyl]-2,3,4,5-tetrahydro-1,4-benzoxazepin-5-one [Example 1]”, the “effect on QTc interval” value in series [2] is reported as “shortening of the QTc interval”. Turning to `[2H]C([2H])(c1ncccn1)N1C(=O)c2cc(-c3ccc(OC(F)(F)F)cc3)ccc2OC([2H])([2H])C1([2H])[2H]` [Example 6, 4-[pyrimidin-2-yl(d2)methyl]-7-[4-(trifluoromethoxy)phenyl]-2,3,4,5-tetrahydro(2,2,3,3-d4)-1,4-benzoxazepin-5-one], in series [1], the half-life at 1 μM amounted to 1.51 h and the CLint scaled at 1 μM amounted to 19.2 mL/min/kg. The like results for `[2H]C1([2H])Oc2ccc(-c3ccc(OC(F)(F)F)cc3)cc2C(=O)N(Cc2ncccn2)C1([2H])[2H]` [Example 5, 4-(pyrimidin-2-ylmethyl)-7-[4-(trifluoromethoxy)phenyl]-2,3,4,5-tetrahydro(2,2,3,3-d4)-1,4-benzoxazepin-5-one] were, in that order, 1.35 h and 21.5 mL/min/kg.
